# Tests used:
# [1] = pH 7; cited from earlier work
# [2] = system: invasive winter annual grass (downy brome, feral rye, Japanese brome); test: Invasive winter annual grass field efficacy studies, biomass as percent of non-treated (Sites 1 and 2 combined); format: in vivo, Bromus tectorum, Secale cereale, Bromus japonicus; details: 1 YAT, across all five application timings, 73 and 102 g·ai·ha^−1; POST treatments with glyphosate
# Experimental: In year 1, field experiments were conducted to compare the effectiveness of indaziflam and imazapic for long-term invasive winter annual grass control, and to evaluate the response of the native plant communities. The experiments were established at two sites on the Colorado Front Range dominated by invasive winter annual grasses. Site 1 (lat 40° 15′2″N, long 105° 12′56″W) was infested with equal amounts of downy brome and Japanese brome. Site 2 (lat 40° 43′23″N, long 104° 55′58″W) was infested with feral rye. These two sites were approximately 58 km apart. Site 1 was located on Rabbit Mountain Open Space (Boulder County). Site 2 was located on a Colorado Parks and Wildlife Area (Larimer County). Before herbicide application in July, visual estimates were made across the entire study area of percentage of living canopy cover for all species present at both sites.
# Site 1 was characterized by ˜80-100% downy brome and Japanese brome canopy cover with a dense fine-fuel layer, e.g., thatch, (2 to 5 cm), and a scattered stand of co-occurring species (˜0-10% canopy cover, Table 4). […]
# Biomass harvests and species richness evaluations were conducted in August (year 2 and year 3) to evaluate invasive winter annual grass control and response of co-occurring species. […] Additionally, at Site 1, species richness was calculated for each treatment as a simple estimate of biological diversity. […]
structure (smiles),measurement,setting,value
"Cc1ccc2c(c1)[C@H](Nc1nc(N)nc(C(C)F)n1)[C@@H](C)C2 (mixture of isomers) [Indaziflam, N2-[(1R,2S)-2,3-dihydro-2,6-dimethyl-1H-inden-1-yl]-6-[(1RS)-1-fluoroethyl]-1,3,5-triazine-2,4-diamine]",Log Kow,[1],2.8
same,invasive winter annual grass control,[2],> 99%
